Laboratory results as given in patent publication US9499535B2, “Kinase inhibitors” (ORIGENIS GMBH, priority 2011, dated 2016).

Assays:
MYLK = MYLK (Homo sapiens, UniProt Q15746); experiment: MYLK assay (LanthaScreen Eu Kinase Binding Assay); conditions: 5 nM MYLK, 30 nM tracer 236, RT 1 h; read-out: MYLK Activites: IC50
In short: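 TR-FRET tracer-displacement binding: 5 nM MYLK with 2 nM Eu-anti-GST antibody and 30 nM tracer 236 in kinase buffer A, 1 h at RT. The 665/615 nm emission ratio was plotted against inhibitor concentration; IC50 from variable-slope sigmoidal fit.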

SYK kinase = molecular target: T1, SYK kinase (Homo sapiens, UniProt P43405); experiment: SYK assay (OMNIA Kinase Assay, Invitrogen); format: biochemical; conditions: apparent Ki calculated from the IC50 using the Cheng-Prusoff equation; 1 mM ATP, 10 μM Peptide Substrate; read-out: SYK Activities: Ki
T1 construct: purchased Invitrogen, Carlsbad
In short: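 Continuous SOX-fluorescence (Omnia) readout of Tyr 7 peptide (10 μM) phosphorylation with 1 mM ATP and 0.2 mM DTT at 30° C, started by SYK addition. Fluorescence (λex 360/λem 485 nm) was read every 30 s for 30 min. IC50 from velocity vs concentration; apparent Ki via Cheng-Prusoff.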

LRRK2 = LRRK2 (Homo sapiens, UniProt Q5S007); experiment: LRRK2 assay (LanthaScreen Eu Kinase Binding Assay); conditions: 5 nM LRRK2, 10 nM tracer 236, RT 1 h; read-out: LRRK2 Activites: IC50
LRRK2, sequence (Q5S007 970-2527 limits assumed): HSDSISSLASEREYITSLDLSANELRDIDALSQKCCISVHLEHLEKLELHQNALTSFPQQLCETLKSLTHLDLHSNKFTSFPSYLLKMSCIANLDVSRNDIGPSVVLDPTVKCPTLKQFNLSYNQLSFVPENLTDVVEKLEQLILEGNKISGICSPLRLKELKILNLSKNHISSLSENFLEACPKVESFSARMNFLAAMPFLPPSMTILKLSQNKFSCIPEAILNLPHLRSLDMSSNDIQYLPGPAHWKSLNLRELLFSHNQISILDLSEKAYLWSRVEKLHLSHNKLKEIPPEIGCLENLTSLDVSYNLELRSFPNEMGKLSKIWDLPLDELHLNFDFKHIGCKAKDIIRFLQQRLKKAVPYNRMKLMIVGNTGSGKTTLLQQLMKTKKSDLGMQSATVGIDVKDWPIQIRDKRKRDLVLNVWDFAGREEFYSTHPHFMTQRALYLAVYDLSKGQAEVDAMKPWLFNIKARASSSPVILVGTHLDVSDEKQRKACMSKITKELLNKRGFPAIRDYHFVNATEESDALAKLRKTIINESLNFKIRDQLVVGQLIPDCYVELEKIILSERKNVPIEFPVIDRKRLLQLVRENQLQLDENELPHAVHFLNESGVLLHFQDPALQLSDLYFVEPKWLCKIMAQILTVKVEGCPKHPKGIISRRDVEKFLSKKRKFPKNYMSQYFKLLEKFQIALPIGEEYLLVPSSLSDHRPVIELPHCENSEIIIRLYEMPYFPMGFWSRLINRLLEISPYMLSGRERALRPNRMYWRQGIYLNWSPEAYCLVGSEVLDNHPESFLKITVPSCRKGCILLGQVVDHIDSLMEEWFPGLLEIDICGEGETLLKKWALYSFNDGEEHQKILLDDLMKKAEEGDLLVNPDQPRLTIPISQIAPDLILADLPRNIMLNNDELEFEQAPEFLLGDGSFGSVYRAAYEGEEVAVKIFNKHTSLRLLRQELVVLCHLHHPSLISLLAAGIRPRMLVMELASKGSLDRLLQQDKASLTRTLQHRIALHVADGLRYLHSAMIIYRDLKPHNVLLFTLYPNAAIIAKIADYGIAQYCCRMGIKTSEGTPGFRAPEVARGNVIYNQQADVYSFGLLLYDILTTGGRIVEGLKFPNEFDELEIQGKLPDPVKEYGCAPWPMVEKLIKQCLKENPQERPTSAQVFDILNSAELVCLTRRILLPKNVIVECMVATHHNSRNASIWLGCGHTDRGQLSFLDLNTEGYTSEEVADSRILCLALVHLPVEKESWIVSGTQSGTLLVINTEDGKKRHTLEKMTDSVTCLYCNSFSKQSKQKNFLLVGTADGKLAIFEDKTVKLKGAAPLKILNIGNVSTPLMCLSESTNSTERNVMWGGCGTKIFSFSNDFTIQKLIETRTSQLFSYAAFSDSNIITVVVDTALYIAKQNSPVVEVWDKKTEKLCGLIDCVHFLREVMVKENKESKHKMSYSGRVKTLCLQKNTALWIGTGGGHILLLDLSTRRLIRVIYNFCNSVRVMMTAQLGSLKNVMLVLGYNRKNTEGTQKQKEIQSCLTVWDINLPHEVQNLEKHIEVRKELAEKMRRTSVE
In short: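 Kinase binding was detected by europium anti-tag antibody FRET with a competing tracer, so inhibitor binding lowers the FRET signal. IC50 came from a variable-slope sigmoidal fit of emission ratio against inhibitor concentration.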

MYLK, sequence (Q15746 whole entry): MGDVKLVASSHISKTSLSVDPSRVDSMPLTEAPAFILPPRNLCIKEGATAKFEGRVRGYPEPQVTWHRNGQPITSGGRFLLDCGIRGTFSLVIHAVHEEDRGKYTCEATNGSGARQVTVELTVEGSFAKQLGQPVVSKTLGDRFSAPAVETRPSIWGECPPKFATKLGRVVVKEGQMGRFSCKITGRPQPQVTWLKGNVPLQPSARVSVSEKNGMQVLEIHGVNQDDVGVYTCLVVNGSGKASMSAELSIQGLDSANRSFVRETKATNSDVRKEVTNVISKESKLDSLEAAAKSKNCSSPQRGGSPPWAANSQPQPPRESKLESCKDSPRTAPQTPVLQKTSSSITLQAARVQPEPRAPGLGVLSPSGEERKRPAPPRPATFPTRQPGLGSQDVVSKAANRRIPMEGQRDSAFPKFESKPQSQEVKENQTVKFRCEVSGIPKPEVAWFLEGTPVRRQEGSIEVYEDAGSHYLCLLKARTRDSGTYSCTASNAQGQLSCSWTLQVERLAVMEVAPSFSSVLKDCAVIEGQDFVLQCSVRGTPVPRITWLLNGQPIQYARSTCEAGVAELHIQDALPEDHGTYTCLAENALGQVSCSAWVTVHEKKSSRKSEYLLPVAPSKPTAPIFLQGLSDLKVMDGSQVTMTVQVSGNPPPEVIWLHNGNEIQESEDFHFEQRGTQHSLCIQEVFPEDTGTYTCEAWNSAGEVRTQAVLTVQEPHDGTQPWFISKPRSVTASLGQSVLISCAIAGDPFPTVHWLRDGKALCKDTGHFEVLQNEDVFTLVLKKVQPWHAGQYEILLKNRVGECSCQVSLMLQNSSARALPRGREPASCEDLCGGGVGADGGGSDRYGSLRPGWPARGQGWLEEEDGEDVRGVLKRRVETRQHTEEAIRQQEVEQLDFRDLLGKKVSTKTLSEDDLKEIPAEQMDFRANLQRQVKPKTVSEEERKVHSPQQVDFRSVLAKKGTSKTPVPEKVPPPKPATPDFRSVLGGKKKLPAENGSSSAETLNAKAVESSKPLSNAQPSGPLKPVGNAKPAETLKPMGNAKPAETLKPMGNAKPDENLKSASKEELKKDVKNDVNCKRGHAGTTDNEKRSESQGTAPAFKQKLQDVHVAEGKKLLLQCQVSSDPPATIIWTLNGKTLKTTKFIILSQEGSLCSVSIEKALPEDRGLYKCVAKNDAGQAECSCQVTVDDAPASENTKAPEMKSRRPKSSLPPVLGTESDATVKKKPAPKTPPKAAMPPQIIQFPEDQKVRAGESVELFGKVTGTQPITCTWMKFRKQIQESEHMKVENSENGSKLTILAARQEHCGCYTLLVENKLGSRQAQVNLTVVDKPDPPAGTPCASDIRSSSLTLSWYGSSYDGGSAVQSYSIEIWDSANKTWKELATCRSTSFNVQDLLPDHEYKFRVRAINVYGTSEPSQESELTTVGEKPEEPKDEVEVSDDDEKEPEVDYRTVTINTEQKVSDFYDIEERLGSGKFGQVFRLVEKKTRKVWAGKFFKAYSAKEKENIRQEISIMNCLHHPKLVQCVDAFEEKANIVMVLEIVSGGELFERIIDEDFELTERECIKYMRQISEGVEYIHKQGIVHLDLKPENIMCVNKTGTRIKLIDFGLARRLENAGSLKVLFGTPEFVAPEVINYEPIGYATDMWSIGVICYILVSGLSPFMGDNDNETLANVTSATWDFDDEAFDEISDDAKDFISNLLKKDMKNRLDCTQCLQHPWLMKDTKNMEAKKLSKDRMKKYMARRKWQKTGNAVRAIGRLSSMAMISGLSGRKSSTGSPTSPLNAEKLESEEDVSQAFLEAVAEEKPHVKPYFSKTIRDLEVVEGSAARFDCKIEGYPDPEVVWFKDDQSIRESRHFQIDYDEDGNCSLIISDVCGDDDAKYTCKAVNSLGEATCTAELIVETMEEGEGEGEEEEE

IC50 (MYLK) [µM] | Ki (SYK kinase) [µM] | IC50 (LRRK2) [µM] | SMILES
< 5 | < 0.01 | 0.01 to 0.1 | c1cnc2c(c1)nc(Nc1ccc3[nH]ncc3c1)c1n[nH]cc12 [Example #56, (1H-Indazol-5-yl)-(2H-2,3,5,9-tetraaza-cyclopenta[a]naphthalen-4-yl)-amine]
< 5 | 0.1 to 1 | 0.1 to 1 | COc1ccc2nc(Nc3ccc(NCCCN(C)C)nc3)c3n[nH]cc3c2c1 [Example #253, N2-(3-(dimethylamino)propyl)-N5-(8-methoxy-2H-pyrazolo[3,4-c]quinolin-4-yl)pyridine-2,5-diamine]
< 5 | 0.01 to 0.1 | 0.1 to 1 | COc1cccc2c1nc(Nc1ccc3cn[nH]c3c1)c1n[nH]cc12 [Example #171, (1H-Indazol-6-yl)-(6-methoxy-2H-pyrazolo[3,4-c]quinolin-4-yl)-amine]
< 5 | 0.01 to 0.1 | 0.01 to 0.1 | COc1cccc2nc(Nc3ccc(N4CCN(C(C)=O)CC4)cc3)c3[nH]ncc3c12 [Example #340, 1-(4-(4-((9-methoxy-3H-pyrazolo[3,4-c]quinolin-4-yl)amino)phenyl)piperazin-1-yl)ethan-1-one]
< 5 | 0.1 to 1 | 0.01 to 0.1 | COc1ccc2nc(Nc3ccc(C(=O)N(C)C)cc3)c3n[nH]cc3c2c1 [Example #303, 4-((8-methoxy-2H-pyrazolo[3,4-c]quinolin-4-yl)amino)-N,N-dimethylbenzamide]
< 5 | < 0.01 | 0.01 to 0.1 | CCN1CCN(c2ccc(Nc3nc4ccc(OC)cc4c4c[nH]nc34)cc2)CC1 [Example #187, [4-(4-Ethyl-piperazin-1-yl)-phenyl]-(8-methoxy-2H-pyrazolo[3,4-c]quinolin-4-yl)-amine]
< 5 | 0.01 to 0.1 | 0.1 to 1 | COc1ccc2nc(Nc3ccc(N4CCN(C)CC4)c(Cl)c3)c3n[nH]cc3c2c1 [Example #195, [3-Chloro-4-(4-methyl-piperazin-1-yl)-phenyl]-(8-methoxy-2H-pyrazolo[3,4-c]quinolin-4-yl)-amine]
< 5 | 0.01 to 0.1 | 0.1 to 1 | COc1cc2nc(Nc3ccc4cn[nH]c4c3)c3n[nH]cc3c2cc1OC [Example #136, (7,8-Dimethoxy-2H-pyrazolo[3,4-c]quinolin-4-yl)-(1H-indazol-6-yl)-amine]
< 5 | 0.01 to 0.1 | 0.1 to 1 | COc1cccc2c1nc(Nc1ccc3[nH]ncc3c1)c1n[nH]cc12 [Example #268, (1H-Indazol-5-yl)-(6-methoxy-2H-pyrazolo[3,4-c]quinolin-4-yl)-amine]
< 5 | 0.01 to 0.1 | 0.1 to 1 | COc1ccc2nc(Nc3ccc(CO)cc3)c3n[nH]cc3c2c1 [Example #280, (4-((8-methoxy-2H-pyrazolo[3,4-c]quinolin-4-yl)amino)phenyl)methanol]
< 5 | 0.01 to 0.1 | 0.1 to 1 | COc1ccc2nc(Nc3ccc(OCC(=O)O)cc3)c3n[nH]cc3c2c1 [Example #290, 2-(4-((8-methoxy-2H-pyrazolo[3,4-c]quinolin-4-yl)amino)phenoxy)acetic acid]
< 5 | 0.01 to 0.1 | 0.1 to 1 | COc1ccc2nc(Nc3cn[nH]c3)c3[nH]ncc3c2c1 [Example #121, (8-Methoxy-3H-pyrazolo[3,4-c]quinolin-4-yl)-(1H-pyrazol-4-yl)-amine]
< 5 | < 0.01 | 0.1 to 1 | COc1ccc2c(c1)nc(Nc1ccc3c(c1)NC(=O)CCC3)c1n[nH]cc12 [Example #257, 8-((7-methoxy-2H-pyrazolo[3,4-c]quinolin-4-yl)amino)-4,5-dihydro-1H-benzo[b]azepin-2(3H)-one]
< 5 | 0.01 to 0.1 | 0.01 to 0.1 | COc1cc2nc(Nc3cc(C4CC4)[nH]n3)c3n[nH]cc3c2cc1OC [Example #150, (5-Cyclopropyl-1H-pyrazol-3-yl)-(7,8-dimethoxy-2H-pyrazolo[3,4-c]quinolin-4-yl)-amine]
< 5 | 0.01 to 0.1 | 0.01 to 0.1 | COc1ccc2nc(Nc3ccc4c(c3)COC4)c3n[nH]cc3c2c1 [Example #147, (1,3-Dihydro-isobenzofuran-5-yl)-(8-methoxy-2H-pyrazolo[3,4-c]quinolin-4-yl)-amine]
< 5 | < 0.01 | 0.01 to 0.1 | COc1ccc2nc(Nc3ccc4c(c3)NC(=O)CCC4)c3n[nH]cc3c2c1 [Example #188, 8-(8-Methoxy-2H-pyrazolo[3,4-c]quinolin-4-ylamino)-1,3,4,5-tetrahydro-benzo[b]azepin-2-one]

IC50 (MYLK) [µM] | Ki (SYK kinase) [µM] | IC50 (LRRK2) [µM] | SMILES
< 5 | 0.01 to 0.1 | 0.1 to 1 | COc1cc(OC)c2nc(Nc3ccc(C(=O)N4CCN(C)CC4)cc3)c3n[nH]cc3c2c1 [Example #283, (4-((6,8-dimethoxy-2H-pyrazolo[3,4-c]quinolin-4-yl)amino)phenyl)(4-methylpiperazin-1-yl)methanone]
< 5 | < 0.01 | 0.01 to 0.1 | Cc1[nH]nc2c(Nc3ccc4cn[nH]c4c3)nc3ccccc3c12 [Example #209, (1H-Indazol-6-yl)-(1-methyl-2H-pyrazolo[3,4-c]quinolin-4-yl)-amine]
< 5 | 0.01 to 0.1 | 0.01 to 0.1 | COc1ccc2nc(Nc3ccc(N4CCN(C)CC4)cc3)c3n[nH]cc3c2c1 [Example #42, (8-Methoxy-2H-pyrazolo[3,4-c]quinolin-4-yl)-[4-(4-methyl-piperazin-1-yl)-phenyl]-amine]
< 5 | 0.01 to 0.1 | 0.1 to 1 | COc1ccc2c(c1)nc(Nc1ccc(N3CCN(C4CC4)CC3)cc1)c1n[nH]cc12 [Example #262, [4-(4-Cyclopropyl-piperazin-1-yl)-phenyl]-(7-methoxy-2H-pyrazolo[3,4-c]quinolin-4-yl)-amine]
< 5 | 0.01 to 0.1 | 0.1 to 1 | COc1ccc2nc(Nc3cccc(N4CCN(C)CC4)c3)c3n[nH]cc3c2c1 [Example #228, (8-Methoxy-2H-pyrazolo[3,4-c]quinolin-4-yl)-[3-(4-methyl-piperazin-1-yl)-phenyl]-amine]
< 5 | 0.01 to 0.1 | 0.1 to 1 | COc1ccc2nc(Nc3ccc(C(=O)O)cc3)c3n[nH]cc3c2c1 [Example #57, 4-(8-Methoxy-2H-pyrazolo[3,4-c]quinolin-4-ylamino)-benzoic-acid]
< 5 | 0.1 to 1 | 0.01 to 0.1 | COc1ccc2nc(Nc3ccc(N4CCN(C5CCCC5)CC4)cc3)c3n[nH]cc3c2c1 [Example #269, [4-(4-Cyclopentyl-piperazin-1-yl)-phenyl]-(8-methoxy-2H-pyrazolo[3,4-c]quinolin-4-yl)-amine]
< 5 | 0.01 to 0.1 | 0.1 to 1 | COc1ccc2nc(Nc3ccc(CN4CCN(C)CC4)cc3)c3n[nH]cc3c2c1 [Example #238, (8-Methoxy-2H-pyrazolo[3,4-c]quinolin-4-yl)-[4-(4-methyl-piperazin-1-ylmethyl)-phenyl]-amine]
< 5 | 0.01 to 0.1 | 0.1 to 1 | COc1ccc2nc(Nc3ccc(O)c(O)c3)c3n[nH]cc3c2c1 [Example #162, 4-(8-Methoxy-2H-pyrazolo[3,4-c]quinolin-4-ylamino)-benzene-1,2-diol]
< 5 | 0.01 to 0.1 | 0.1 to 1 | COc1cc2nc(Nc3ccc(N4CCOCC4)cc3)c3n[nH]cc3c2cc1OC [Example #133, (7,8-Dimethoxy-2H-pyrazolo[3,4-c]quinolin-4-yl)-(4-morpholin-4-yl-phenyl)-amine]
< 5 | 0.01 to 0.1 | 0.01 to 0.1 | COc1ccc2nc(Nc3ccc(N4CCN(C)CC4)c(C)c3)c3n[nH]cc3c2c1 [Example #183, (8-Methoxy-2H-pyrazolo[3,4-c]quinolin-4-yl)-[3-methyl-4-(4-methyl-piperazin-1-yl)-phenyl]-amine]
< 5 | 0.1 to 1 | 0.1 to 1 | COc1ccc2nc(Nc3cnc(N4CCN(C)CC4)nc3)c3n[nH]cc3c2c1 [Example #223, (8-Methoxy-2H-pyrazolo[3,4-c]quinolin-4-yl)-[2-(4-methyl-piperazin-1-yl)-pyrimidin-5-yl]-amine]
< 5 | < 0.01 | 0.1 to 1 | COc1cccc2c1nc(Nc1ccc(N3CCOCC3)c(F)c1)c1n[nH]cc12 [Example #246, (3-Fluoro-4-morpholin-4-yl-phenyl)-(6-methoxy-2H-pyrazolo[3,4-c]quinolin-4-yl)-amine]
< 5 | 0.01 to 0.1 | 0.1 to 1 | CCN1CCN(c2ccc(Nc3nc4c(OC)cccc4c4c[nH]nc34)cc2)CC1 [Example #239, [4-(4-Ethyl-piperazin-1-yl)-phenyl]-(6-methoxy-2H-pyrazolo[3,4-c]quinolin-4-yl)-amine]
< 5 | 0.01 to 0.1 | 0.1 to 1 | COc1ccc2nc(Nc3ccc(NCCN(C)C)nc3)c3n[nH]cc3c2c1 [Example #254, N2-(2-(dimethylamino)ethyl)-N5-(8-methoxy-2H-pyrazolo[3,4-c]quinolin-4-yl)pyridine-2,5-diamine]
